Tested on: strains of Enterobacteriaceae producing various carbapenemases (class A, D and B; 169 strains)
Assay: Meropenem or tebipenem potentiation by Compounds 97 or 62 (MIC)
Type: cell-based
Description: The largest panel of clinical isolates expressing class A, D and B carbapenemases alone or in combination with other beta-lactamases (169 strains) was used to evaluate carbapenem potentiation activity of Compounds 97 and 62. MIC for meropenem and tebipenem of these strains were determined either alone or in the presence of Compounds 97 or 62, respectively, at a fixed concentration of 8 μg/ml in the growth media.

`C[C@@H](O)[C@H]1C(=O)N2C(C(=O)O)=C(S[C@@H]3CN[C@H](C(=O)N(C)C)C3)[C@H](C)[C@H]12` [M] was tested, and the “Meropenem MIC alone (M)” value (CF1022 Citrobacter freundii SHV-12(2be), TEM-OSBL(2b), IMP-8) was “Y (MIC of 1 μg/mL to 10 μg/mL)”, the “Meropenem MIC alone (M)” value (CF1023 Citrobacter freundii SHV-12(2be), TEM-OSBL(2b), CTX-M-3, CMY-34, NDM-1) was “Z (MIC of greater than 10 μg/mL)” and the “Meropenem MIC alone (M)” value (EC1061 Escherichia coli NDM-1, CMY-6) was “Z (MIC of greater than 10 μg/mL)”. The “Meropenem MIC alone (M)” value (EC1069 Escherichia coli CTX-M-27, NDM-1) was “Z (MIC of greater than 10 μg/mL)”, the “Meropenem MIC alone (M)” value (EC1070 Escherichia coli TEM-OSBL(2b), CMY-42, NDM-5) was “Z (MIC of greater than 10 μg/mL)” and the “Meropenem MIC alone (M)” value (EC1072 Escherichia coli CTX-M-3, NDM-1) was “Z (MIC of greater than 10 μg/mL)”. The “Meropenem MIC alone (M)” value (ECL1045 Enterobacter cloacae VIM-1) was “Z (MIC of greater than 10 μg/mL)”, the “Meropenem MIC alone (M)” value (ECL1055 Enterobacter cloacae KPC-3, TEM) was “Y (MIC of 1 μg/mL to 10 μg/mL)” and the “Meropenem MIC alone (M)” value (ECL1057 Enterobacter cloacae NDM-1, TEM-1, CTX-M-15) was “Z (MIC of greater than 10 μg/mL)”. For the same compound, the “Meropenem MIC alone (M)” value (ECL1084 Enterobacter cloacae CTX-M-15, ACT-16, NDM-1) was “Z (MIC of greater than 10 μg/mL)”, the “Meropenem MIC alone (M)” value (ECL1085 Enterobacter cloacae SHV-31(2be), TEM-1(2b), CTX-M-15, NDM-1) was “Z (MIC of greater than 10 μg/mL)” and the “Meropenem MIC alone (M)” value (ECL1087 Enterobacter cloacae VIM-1) was “Z (MIC of greater than 10 μg/mL)”. For the same compound, the “Meropenem MIC alone (M)” value (ECL1090 Enterobacter cloacae TEM-1(2b), CTX-M-22, ACT-type, IMP-8) was “Y (MIC of 1 μg/mL to 10 μg/mL)”, the “Meropenem MIC alone (M)” value (ECL1092 Enterobacter cloacae TEM-OSBL(2b), ACT-32, VIM-1) was “Y (MIC of 1 μg/mL to 10 μg/mL)” and the “Meropenem MIC alone (M)” value (ECL1093 Enterobacter cloacae TEM-OSBL(2b), ACT-32, VIM-1) was “Y (MIC of 1 μg/mL to 10 μg/mL)”. The “Meropenem MIC alone (M)” value (ECL1094 Enterobacter cloacae VIM-1) was “Z (MIC of greater than 10 μg/mL)”, the “Meropenem MIC alone (M)” value (ECL1095 Enterobacter cloacae SHV-12(2be), TEM-OSBL(2b), CMY-4, ACT-16, VIM-4, OXA-48(c)) was “Z (MIC of greater than 10 μg/mL)” and the “Meropenem MIC alone (M)” value (ECL1096 Enterobacter cloacae CMY-4, VIM-4, OXA-48(c)) was “Z (MIC of greater than 10 μg/mL)”. For the same compound, the “Meropenem MIC alone (M)” value (ECL1097 Enterobacter cloacae SHV-31(2be), TEM-OSBL(2b), CTX-M-15, ACT-31, NDM-1) was “Z (MIC of greater than 10 μg/mL)”, the “Meropenem MIC alone (M)” value (ECL1098 Enterobacter cloacae TEM-OSBL(2b), DHA-1, ACT-16, NDM-1) was “Z (MIC of greater than 10 μg/mL)” and the “Meropenem MIC alone (M)” value (KP1054 Klebsiella pneumoniae VIM-1, SHV-11) was “Y (MIC of 1 μg/mL to 10 μg/mL)”. The “Meropenem MIC alone (M)” value (KP1059 Klebsiella pneumoniae VIM-1, SHV-11) was “Z (MIC of greater than 10 μg/mL)”, the “Meropenem MIC alone (M)” value (KP1061 Klebsiella pneumoniae KPC-3, TEM-1, SHV-11) was “Z (MIC of greater than 10 μg/mL)” and the “Meropenem MIC alone (M)” value (KP1064 Klebsiella pneumoniae KPC-2, TEM-1, SHV-11) was “Z (MIC of greater than 10 μg/mL)”. The “Meropenem MIC alone (M)” value (KP1065 Klebsiella pneumoniae VIM-1, SHV-11) was “Y (MIC of 1 μg/mL to 10 μg/mL)”, the “Meropenem MIC alone (M)” value (KP1070 Klebsiella pneumoniae KPC-2, SHV-11, TEM-1) was “Z (MIC of greater than 10 μg/mL)” and the “Meropenem MIC alone (M)” value (KP1074 Klebsiella pneumoniae KPC-3, SHV-11, TEM) was “Z (MIC of greater than 10 μg/mL)”. For the same compound, the “Meropenem MIC alone (M)” value (KP1081 Klebsiella pneumoniae NDM-1, TEM-1, SHV-11, CMY-6, CTX-M-15) was “Z (MIC of greater than 10 μg/mL)”, the “Meropenem MIC alone (M)” value (KP1158 Klebsiella pneumoniae KPC-2, VIM-1) was “Z (MIC of greater than 10 μg/mL)” and the “Meropenem MIC alone (M)” value (KP1159 Klebsiella pneumoniae SHV-1(2b), CTX-M-15, IMP-4) was “Z (MIC of greater than 10 μg/mL)”. The “Meropenem MIC alone (M)” value (KP1160 Klebsiella pneumoniae SHV-28(2be), CTX-M-15, IMP-26) was “Z (MIC of greater than 10 μg/mL)”, the “Meropenem MIC alone (M)” value (KP1161 Klebsiella pneumoniae NDM-1) was “Z (MIC of greater than 10 μg/mL)” and the “Meropenem MIC alone (M)” value (KP1162 Klebsiella pneumoniae SHV-1(2b), CTX-M-15, IMP-4) was “Z (MIC of greater than 10 μg/mL)”. For the same compound, the “Meropenem MIC alone (M)” value (KP1163 Klebsiella pneumoniae SHV-11(2b), MOX-1, KPC-2, VIM-1) was “Z (MIC of greater than 10 μg/mL)”, the “Meropenem MIC alone (M)” value (KP1164 Klebsiella pneumoniae SHV-12(2be), VIM-1) was “Z (MIC of greater than 10 μg/mL)” and the “Meropenem MIC alone (M)” value (KP1165 Klebsiella pneumoniae SHV-11(2b), CTX-M-15, VIM-27) was “Z (MIC of greater than 10 μg/mL)”. The “Meropenem MIC alone (M)” value (KP1166 Klebsiella pneumoniae SHV-5(2be), VIM-26) was “Z (MIC of greater than 10 μg/mL)”, the “Meropenem MIC alone (M)” value (KP1168 Klebsiella pneumoniae SHV-11(2b), CTX-M-15, VIM-27) was “Z (MIC of greater than 10 μg/mL)” and the “Meropenem MIC alone (M)” value (KP1169 Klebsiella pneumoniae SHV-11(2b), VIM-1) was “Z (MIC of greater than 10 μg/mL)”. For the same compound, the “Meropenem MIC alone (M)” value (KP1170 Klebsiella pneumoniae SHV-11(2b), CTX-M-15, NDM-1) was “Z (MIC of greater than 10 μg/mL)”, the “Meropenem MIC alone (M)” value (KP1172 Klebsiella pneumoniae SHV-31(2be), DHA-1, VIM-1) was “Z (MIC of greater than 10 μg/mL)” and the “Meropenem MIC alone (M)” value (KP1173 Klebsiella pneumoniae TEM-33(2br), CTX-M-15, IMP-1) was “Y (MIC of 1 μg/mL to 10 μg/mL)”. The “Meropenem MIC alone (M)” value (KP1174 Klebsiella pneumoniae CTX-M-14, IMP-1) was “Y (MIC of 1 μg/mL to 10 μg/mL)”, the “Meropenem MIC alone (M)” value (KP1175 Klebsiella pneumoniae SHV-OSBL(2b), VIM-1) was “Z (MIC of greater than 10 μg/mL)” and the “Meropenem MIC alone (M)” value (KP1176 Klebsiella pneumoniae SHV-12(2be), TEM-OSBL(2b), CMY-13, KPC-2, VIM-1) was “Z (MIC of greater than 10 μg/mL)”. The “Meropenem MIC alone (M)” value (KP1177 Klebsiella pneumoniae SHV-OSBL(2b), TEM-OSBL(2b), CTX-M-15, NDM-1) was “Z (MIC of greater than 10 μg/mL)”, the “Meropenem MIC alone (M)” value (KP1178 Klebsiella pneumoniae SHV-OSBL(2b), TEM-OSBL(2b), CTX-M-15, NDM-1) was “Z (MIC of greater than 10 μg/mL)” and the “Meropenem MIC alone (M)” value (KP1179 Klebsiella pneumoniae SHV-12(2be), TEM-OSBL(2b), CTX-M-15, NDM-7) was “Z (MIC of greater than 10 μg/mL)”. For the same compound, the “Meropenem MIC alone (M)” value (KP1180 Klebsiella pneumoniae SHV-OSBL(2b), TEM-OSBL(2b), CTX-M-15, DHA-1, IMP-26) was “Y (MIC of 1 μg/mL to 10 μg/mL)” and the “Meropenem MIC alone (M)” value (KP1181 Klebsiella pneumoniae SHV-OSBL(2b), CTX-M-15, IMP-26) was “Z (MIC of greater than 10 μg/mL)”.
